Measured values as given in ChEMBL document CHEMBL2021908, “Identification of novel isocytosine derivatives as xanthine oxidase inhibitors from a set of virtual screening hits” (Bioorg Med Chem, 2012).

How the values were obtained:
[1] = biological target: T1, Xanthine dehydrogenase/oxidase (Bos taurus, UniProt P80457); experiment: Inhibition of bovine xanthine oxidase assessed as uric acid formation using xanthine as substrate at 100 uM after 30 mins by spectrophotometric analysis; details: cattle, 0.5 h
T1 sequence (P80457 whole entry): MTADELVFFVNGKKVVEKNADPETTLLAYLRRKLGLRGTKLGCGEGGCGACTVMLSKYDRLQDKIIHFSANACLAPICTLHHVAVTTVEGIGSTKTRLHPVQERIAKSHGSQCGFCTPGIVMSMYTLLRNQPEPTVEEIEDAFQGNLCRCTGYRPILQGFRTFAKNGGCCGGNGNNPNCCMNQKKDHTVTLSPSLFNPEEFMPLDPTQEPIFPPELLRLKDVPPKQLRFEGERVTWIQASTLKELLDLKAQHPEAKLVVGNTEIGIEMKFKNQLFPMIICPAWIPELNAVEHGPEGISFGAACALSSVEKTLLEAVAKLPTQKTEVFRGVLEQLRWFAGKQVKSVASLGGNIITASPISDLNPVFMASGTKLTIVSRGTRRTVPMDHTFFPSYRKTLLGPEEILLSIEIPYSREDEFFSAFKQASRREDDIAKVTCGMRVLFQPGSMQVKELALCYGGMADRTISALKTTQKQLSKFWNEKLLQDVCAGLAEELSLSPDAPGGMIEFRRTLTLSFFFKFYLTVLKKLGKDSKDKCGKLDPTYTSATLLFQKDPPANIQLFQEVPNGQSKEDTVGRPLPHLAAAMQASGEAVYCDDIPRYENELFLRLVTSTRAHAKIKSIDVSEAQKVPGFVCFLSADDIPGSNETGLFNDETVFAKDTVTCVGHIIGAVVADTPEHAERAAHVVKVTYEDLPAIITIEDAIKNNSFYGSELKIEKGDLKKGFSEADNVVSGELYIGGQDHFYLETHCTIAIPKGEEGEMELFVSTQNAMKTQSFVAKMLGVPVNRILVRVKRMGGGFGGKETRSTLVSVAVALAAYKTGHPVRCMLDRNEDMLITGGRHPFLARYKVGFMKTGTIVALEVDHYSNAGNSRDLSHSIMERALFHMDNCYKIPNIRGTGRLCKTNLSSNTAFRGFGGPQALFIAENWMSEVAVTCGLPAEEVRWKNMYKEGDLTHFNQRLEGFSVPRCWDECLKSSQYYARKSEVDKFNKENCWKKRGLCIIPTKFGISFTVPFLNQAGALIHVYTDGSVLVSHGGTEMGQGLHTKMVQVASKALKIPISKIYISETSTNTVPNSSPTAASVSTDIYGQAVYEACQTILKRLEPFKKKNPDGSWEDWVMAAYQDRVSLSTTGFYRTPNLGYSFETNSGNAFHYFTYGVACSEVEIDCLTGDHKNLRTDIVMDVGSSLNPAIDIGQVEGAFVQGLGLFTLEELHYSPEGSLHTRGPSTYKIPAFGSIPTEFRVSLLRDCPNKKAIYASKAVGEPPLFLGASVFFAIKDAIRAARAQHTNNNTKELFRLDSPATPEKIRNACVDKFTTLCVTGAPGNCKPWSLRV

[2] = biological target: T1, Xanthine dehydrogenase/oxidase; experiment: Inhibition of bovine xanthine oxidase assessed as uric acid formation using xanthine as substrate after 30 mins by spectrophotometric analysis
[3] = system: Rattus norvegicus; experiment: Antihyperuricemic activity in Sprague-Dawley rat assessed as decrease of potassium oxonate-induced uric acid level in serum at 100 mg/kg, po administered 1 hr post potassium oxonate challenge measured after 4 hrs by photometric analysis relative to control; assay type: functional; parameters: scale not given: the % may be the effect or the level left
[4] = system: Rattus norvegicus; experiment: Antihyperuricemic activity in Sprague-Dawley rat assessed as decrease of potassium oxonate-induced uric acid level in serum at 50 mg/kg, ip administered 1 hr post potassium oxonate challenge measured after 4 hrs by photometric analysis relative to control; assay type: functional; parameters: scale not given: the % may be the effect or the level left; details: route intraperitoneal
[5] = biological target: T1, Xanthine dehydrogenase/oxidase; experiment: Inhibition of bovine xanthine oxidase assessed as uric acid formation using xanthine as substrate at 10 uM after 30 mins by spectrophotometric analysis; details: cattle, 0.5 h
[6] = system: Rattus norvegicus; experiment: Antihyperuricemic activity in Sprague-Dawley rat assessed as decrease of potassium oxonate-induced uric acid level in serum at 10 mg/kg, po administered 1 hr post potassium oxonate challenge measured after 4 hrs by photometric analysis relative to control; parameters: scale not given: the % may be the effect or the level left

## O=C(O)c1ccc(-n2ccnc2)c([N+](=O)[O-])c1
[1]
  inhibition at 100 µM: 0%

## COc1ccc(-c2cc(C(F)(F)F)nc(N)n2)cc1
[2]
  IC50: > 100 µM

## COc1ccc(-c2cc(O)nc(O)n2)cc1
[2]
  IC50: > 100 µM
[1]
  inhibition at 100 µM: 0%

## COc1ccc(-c2cc(O)nc(N)n2)cc1
[3]
  Activity: 84%

## COc1ccc(-c2cc(O)nc(N)n2)cc1OC
[4]
  Activity: 57%

## COc1cc2c(cc1OC)-c1n[nH]c(=O)n1CC2
[1]
  inhibition at 100 µM: 0%

## O=C1C(=CNNc2ccccc2)C(=O)N(c2ccc(Cl)cc2)C(=S)N1c1ccc(Cl)cc1
[1]
  inhibition at 100 µM: 0%

## COC(=O)c1cc(C)c2c(c1)S(=O)(=O)Cc1cc(NN)cc(Cl)c1O2
[1]
  inhibition at 100 µM: 0%

## COc1ccc(-c2cc(NS(C)(=O)=O)nc(N)n2)cc1
[2]
  IC50: > 100 µM

## Oc1ncnc2[nH]ncc12 [ALLOPURINOL]
[5]
  inhibition at 10 µM: 100%
[6]
  Activity: 184%

## Cc1nc(-c2ccc(OCC(C)C)c(C#N)c2)sc1C(=O)O [FEBUXOSTAT]
[6]
  Activity: 209%
